We go through 18 molecules from patent US12202818B2, “Compounds and methods for CD73 modulation and indications therefor” (Opna Bio SA, priority 2020, dated 2025).

Assay [1] concerns the target T1, Human CD73 (amino acid residues 27-549) (Homo sapiens, UniProt P21589).
T1 construct: Human CD73 (amino acid residues 27-549); His tag (N); made in house; host or cells: E. coli
T1 sequence (P21589 27-549): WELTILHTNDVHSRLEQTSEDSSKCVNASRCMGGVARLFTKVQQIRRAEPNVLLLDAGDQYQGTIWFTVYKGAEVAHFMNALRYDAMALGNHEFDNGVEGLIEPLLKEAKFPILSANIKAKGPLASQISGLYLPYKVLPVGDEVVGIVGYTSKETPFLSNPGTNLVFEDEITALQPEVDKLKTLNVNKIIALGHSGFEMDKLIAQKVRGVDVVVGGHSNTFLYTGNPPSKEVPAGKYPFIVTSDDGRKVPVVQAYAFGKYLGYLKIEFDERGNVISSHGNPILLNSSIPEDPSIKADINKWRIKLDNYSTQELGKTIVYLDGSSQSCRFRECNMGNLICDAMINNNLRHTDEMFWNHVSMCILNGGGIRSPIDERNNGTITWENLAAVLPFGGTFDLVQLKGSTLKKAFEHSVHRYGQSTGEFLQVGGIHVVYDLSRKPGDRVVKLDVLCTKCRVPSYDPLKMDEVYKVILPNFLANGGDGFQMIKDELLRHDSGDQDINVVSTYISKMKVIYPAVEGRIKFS
Put plainly: CD73 enzymatic assay (luciferase-based indirect assay, CellTiter-Glo). The class given is biochemical. The conditions noted are these: 0.4 nM CD73, 150 μM AMP, 1 hour at room temperature. How it is done:
CD73 enzymatic activity was measured in a luciferase-based indirect assay using CellTiter-Glo® system from Promega. The luciferase reaction in the presence of ATP is inhibited by AMP, a primary substrate of CD73. Addition of CD73 enzyme to the reaction converts AMP to adenosine, and release the inhibition, producing a luminescent signal. Inhibition of CD73 leads to the decrease of this luminescent signal.
Human CD73 (amino acid residues 27-549) with N-Terminal His tag was purified in E. coli. All the assay components were prepared in 50 mM HEPEs buffer (pH 7.4) with 0.01% Tween-20. The CD73 enzymatic assay was performed using 0.4 nM CD73 and 150 μM AMP. 9.5 μL of CD73 protein and 9.5 μL of AMP were added to the wells of a 384 well plate containing lpL of various concentrations of test compound or DMSO vehicle and incubated for 1 hour at room temperature. 16 wells containing CD73, AMP and 5% DMSO served as high control. 16 wells containing AMP and 5% DMSO served as low control. Enzymatic reaction was stopped and AMP level was measured indirectly by adding 5 μL of CellTiter-Glo® 2.0 reagent and 5 μL of ATP with a final concentration of 1 μM. Following incubation of the plate at room temperature for 30 minutes, luminescent signal was read on a Tecan plate reader. The percentage inhibition at individual concentrations relative to high and low controls was calculated. The data were analyzed by using nonlinear regression to generate IC50 values.
A general note: ATP-based viability assays read luminescence as a measure of living cells.

The next assay deals with T2, human CD73 (Homo sapiens, UniProt P21589).
T2 construct: expressed in transfected cells
T2 sequence (P21589 27-549): T1 sequence (P21589 27-549)
Put plainly: Inhibitor activity against CD73 in cell based assay (CD73 expressing CHO-K1 cells). The following applies: CHO-K1 cells expressing human CD73, 150 μM AMP, 4 hours of incubation; read-out: CHO-K1 CELL_VARIANT: CD73 IC50. As for the experimental part:
Determine Inhibitor Activity Against CD73 in Cell Based Assay
CD73 expressing CHO-K1 cell clones were generated upon stable transfection of a plasmid expressing human CD73 under the control of CMV promoter. Cells were selected in Ham's F-12K (Kaighn's) media supplemented with 10% fetal bovine serum and 1 mg/ml G418 at 37° C. in a humidified incubator supplied with 5% CO2. The assays were performed as follows. Cells were seeded in a 96 well plate in 50 μL of culture media at a density of 1×10^4 per well. Compound at a maximal concentration of 5 mM was serially diluted 1:3 in DMSO for a total of 8 point titration. A 2 μL aliquot of each dilution point was added to […] culture media and 25 µL was added to each well, providing 10 μM compound at the maximum concentration point. AMP was diluted in culture media and 25 μL was added to each well with a final concentration of 150 μM. 4 wells containing 0.2% DMSO treated cells and AMP served as high controls and 4 wells containing media only with 0.2% DMSO and AMP served as low controls. After 4 hours of incubation, 20 μL of the supernatant was transferred to a 384 well plate. AMP level in supernatant was measured indirectly by adding 5 μL of CellTiter-Glo® 2.0 reagent and 5 μL of ATP with a final concentration of 1 μM. Following incubation of plate at room temperature for 30 minutes, luminescent signal was read on a Tecan plate reader. The percentage inhibition at individual concentrations relative to high and low controls was calculated. The data were analyzed by using nonlinear regression to generate ICso values.

Take `Cc1nn(CC(C)(C)O)c(C)c1-c1ccnc(O[C@H]2CN(c3cn[nH]c(=O)c3Cl)C[C@@H]2F)c1` [P-0021, 4-chloro-5-((3S,4S)-3-fluoro-4-((4-(1-(2-hydroxy-2-methylpropyl)-3,5-dimethyl-1H-pyrazol-4-yl)pyridin-2-yl)oxy)pyrrolidin-1-yl)pyridazin-3(2H)-one]: the half-maximal inhibitory concentration (IC50) (in assay [1]; on human CD73) was 0.001 to 10 µM in each case.

With `Cc1nn(C2CC2)c(C)c1-c1ccnc(O[C@@H]2CCN(c3cn[nH]c(=O)c3Cl)C2)c1` [P-0022, (R)-4-chloro-5-(3-((4-(1-cyclopropyl-3,5-dimethyl-1H-pyrazol-4-yl)pyridin-2-yl)oxy)pyrrolidin-1-yl)pyridazin-3(2H)-one], the IC50 (in assay [1]; at human CD73) was 0.001 to 10 µM each time.

For the molecule `O=c1c(Cl)c(N2CC[C@@H](Oc3cc(C4CCNCC4)ccn3)C2)cnn1CCO` [P-0023, (R)-4-chloro-2-(2-hydroxyethyl)-5-(3-((4-(piperidin-4-yl)pyridin-2-yl)oxy)pyrrolidin-1-yl)pyridazin-3(2H)-one], the concentration for half-maximal inhibition (IC50) (in assay [1]; on human CD73) was 0.001 to 10 µM each time.

As for `O=c1[nH]ncc(N2CC[C@@H](Oc3cc(N4CCC5(CC4)CC(F)(F)C5)ccn3)C2)c1Cl` [P-0024, (R)-4-chloro-5-(3-((4-(2,2-difluoro-7-azaspiro[3.5]nonan-7-yl)pyridin-2-yl)oxy)pyrrolidin-1-yl)pyridazin-3(2H)-one], the 50% inhibitory concentration (IC50) (in assay [1]; on human CD73) was 0.001 to 10 µM in each case.

With `O=C(NC1CCOCC1)c1ccnc(O[C@@H]2CCN(c3cn[nH]c(=O)c3Cl)C2)c1` [P-0025, (R)-2-((1-(5-chloro-6-oxo-1,6-dihydropyridazin-4-yl)pyrrolidin-3-yl)oxy)-N-(tetrahydro-2H-pyran-4-yl)isonicotinamide], the 50% inhibitory concentration (IC50) (in assay [1]; on human CD73) was 0.001 to 10 µM in each case.

As for `Cc1nn(C2CCC2)c(C)c1-c1ccnc(O[C@@H]2CCN(c3cn[nH]c(=O)c3Cl)C2)c1` [P-0026, (R)-4-chloro-5-(3-((4-(1-cyclobutyl-3,5-dimethyl-1H-pyrazol-4-yl)pyridin-2-yl)oxy)pyrrolidin-1-yl)pyridazin-3(2H)-one], the 50% inhibitory concentration (IC50) (in assay [1]; at human CD73) was 0.001 to 10 µM throughout.

As for `Cc1nn(C(C)C)c(C)c1-c1ccnc(O[C@@H]2CCN(c3cn[nH]c(=O)c3Cl)C2)c1` [P-0027, (R)-4-chloro-5-(3-((4-(1-isopropyl-3,5-dimethyl-1H-pyrazol-4-yl)pyridin-2-yl)oxy)pyrrolidin-1-yl)pyridazin-3(2H)-one], the IC50 (in assay [1]; on human CD73) was 0.001 to 10 µM each time.

For the molecule `COC(=O)C1C2CCC1CN(c1ccnc(O[C@@H]3CCN(c4cn[nH]c(=O)c4Cl)C3)c1)C2` (stereo partly drawn) [P-0028, methyl 3-(2-(((R)-1-(5-chloro-6-oxo-1,6-dihydropyridazin-4-yl)pyrrolidin-3-yl)oxy)pyridin-4-yl)-3-azabicyclo[3.2.1]octane-8-carboxylate], the concentration for half-maximal inhibition (IC50) (in assay [1]; on human CD73) was 0.001 to 10 µM throughout.

In the case of `CS(=O)(=O)N1CC=C(c2ccnc(O[C@@H]3CCN(c4cn[nH]c(=O)c4Cl)C3)c2)CC1` [P-0029, (R)-4-chloro-5-(3-((1′-(methylsulfonyl)-1′,2′,3′,6′-tetrahydro-[4,4′-bipyridin]-2-yl)oxy)pyrrolidin-1-yl)pyridazin-3(2H)-one], the IC50 (commonly the concentration at which inhibition is half-maximal) in assay [1] lay in the range of 0.001 to 10 µM; at human CD73, 10 to 100 µM.

`N#CCC1CCN(c2ccnc(O[C@@H]3CCN(c4cn[nH]c(=O)c4Cl)C3)c2)CC1` [P-0030, (R)-2-(1-(2-((1-(5-chloro-6-oxo-1,6-dihydropyridazin-4-yl)pyrrolidin-3-yl)oxy)pyridin-4-yl)piperidin-4-yl)acetonitrile]: the concentration for half-maximal inhibition (IC50) (in assay [1]; on human CD73) was 0.001 to 10 µM each time.

As for `O=c1[nH]ncc(N2CC[C@@H](Oc3cc(C4CCC(O)CC4)ccn3)C2)c1Cl` (stereo partly drawn) [P-0031, (R)-4-chloro-5-(3-((4-(4-hydroxycyclohexyl)pyridin-2-yl)oxy)pyrrolidin-1-yl)pyridazin-3(2H)-one], the IC50 (in assay [1]; at human CD73) was 0.001 to 10 µM throughout.

With `O=c1[nH]ncc(N2CC[C@@H](Oc3cc(C4=CCNC4)ccn3)C2)c1Cl` [P-0032, (R)-4-chloro-5-(3-((4-(2,5-dihydro-1H-pyrrol-3-yl)pyridin-2-yl)oxy)pyrrolidin-1-yl)pyridazin-3(2H)-one], the IC50 (in assay [1]; at human CD73) was 0.001 to 10 µM throughout.

In the case of `Cc1nn(C2(CC#N)COC2)c(C)c1-c1ccnc(O[C@@H]2CCN(c3cn[nH]c(=O)c3Cl)C2)c1` [P-0033, (R)-2-(3-(4-(2-((1-(5-chloro-6-oxo-1,6-dihydropyridazin-4-yl)pyrrolidin-3-yl)oxy)pyridin-4-yl)-3,5-dimethyl-1H-pyrazol-1-yl)oxetan-3-yl)acetonitrile], the IC50 (in assay [1]; at human CD73) was 0.001 to 10 µM each time.

For `Cc1nn(CC23CC(C#N)(C2)C3)c(C)c1-c1ccnc(O[C@@H]2CCN(c3cnn(CCO)c(=O)c3Cl)C2)c1` [P-0034, (R)-3-((4-(2-((1-(5-chloro-1-(2-hydroxyethyl)-6-oxo-1,6-dihydropyridazin-4-yl)pyrrolidin-3-yl)oxy)pyridin-4-yl)-3,5-dimethyl-1H-pyrazol-1-yl)methyl)bicyclo[1.1.1]pentane-1-carbonitrile], the half-maximal inhibitory concentration (IC50) (in assay [1]; on human CD73) was 0.001 to 10 µM in each case.

In the case of `Cc1nn(C2(CC(N)=O)CCC2)c(C)c1-c1ccnc(O[C@@H]2CCN(c3cn[nH]c(=O)c3Cl)C2)c1` [P-0035, (R)-2-(1-(4-(2-((1-(5-chloro-6-oxo-1,6-dihydropyridazin-4-yl)pyrrolidin-3-yl)oxy)pyridin-4-yl)-3,5-dimethyl-1H-pyrazol-1-yl)cyclobutyl)acetamide], the IC50 (in assay [1]; at human CD73) was 0.001 to 10 µM throughout.

Consider `Cc1nn(C2(CC#N)CCC2)c(C)c1-c1ccnc(O[C@@H]2CCN(c3cn[nH]c(=O)c3Cl)C2)c1` [P-0036, (R)-2-(1-(4-(2-((1-(5-chloro-6-oxo-1,6-dihydropyridazin-4-yl)pyrrolidin-3-yl)oxy)pyridin-4-yl)-3,5-dimethyl-1H-pyrazol-1-yl)cyclobutyl)acetonitrile], for which the IC50 (in assay [1]; on human CD73) was 0.001 to 10 µM throughout.

As to `Cc1nn(CC(C)(C)O)c(C)c1-c1cc(O[C@@H]2CCN(c3cn[nH]c(=O)c3Cl)C2)ncn1` [P-0037, (R)-4-chloro-5-(3-((6-(1-(2-hydroxy-2-methylpropyl)-3,5-dimethyl-1H-pyrazol-4-yl)pyrimidin-4-yl)oxy)pyrrolidin-1-yl)pyridazin-3(2H)-one], the 50% inhibitory concentration (IC50) (in assay [1]; at human CD73) was 0.001 to 10 µM each time.

As to `Cc1nn(CC(C)(C)O)c(C)c1-c1ccnc(O[C@@H]2CCN(c3cn[nH]c(=O)c3Cl)C2)c1` [P-0038, (R)-4-chloro-5-(3-((4-(1-(2-hydroxy-2-methylpropyl)-3,5-dimethyl-1H-pyrazol-4-yl)pyridin-2-yl)oxy)pyrrolidin-1-yl)pyridazin-3(2H)-one], the half-inhibitory concentration (IC50) (in assay [1]; at human CD73) was 0.001 to 10 µM each time.
